pIC50: −log10 of the molar value.
How the values were obtained:
L5178Y [1] = assay: Cytotoxic activity against mouse L5178Y cells assessed as growth inhibition at 10 ug/ml by MTT assay; type: functional; conditions: read-out: GI
L5178Y [2] = assay: Cytotoxic activity against mouse L5178Y cells by MTT assay; type: functional, cell-based

| SMILES | inhibition of growth at 10 µg/mL (L5178Y [1]) [%] | pIC50 (L5178Y [2]) |
| --- | --- | --- |
| COC1=Cc2ccnc3c(N)cnc(c23)C1=O | 64.4 |  |
| COC1=Cc2ccnc3ccnc(c23)C1(OC)OC | 51.2 |  |
| COc1cc2ccnc3c2c(c1OC)NC=C3 [AAPTAMINE] | 100 | 5.08 |
| COc1cc2ccnc3ccn4cnc1c4c23 | 98.7 | 4.87 |
| COc1nc2c(OC)cc3ccnc4ccn(c1=O)c2c34 | 38.6 |  |
| COc1cc2ccnc3ccn4c(=O)cnc1c4c23 | 0 |  |
| COc1cc2cc(C(=O)c3ccccc3)nc3c2c(c1O)NC=C3 | 93.7 | 5.26 |

From ChEMBL document CHEMBL2331150, “Aaptamine derivatives from the Indonesian sponge Aaptos suberitoides” (J Nat Prod, 2013)
